Measurements: patent US20220211478A1, “SURGICAL SYSTEM AND METHODS OF USE” (priority 2021, published 2022)

What was measured:
myofibroblast formation = settings: capsular contracture with breast implants; Ajmal et al. (2003); cited from earlier work
fibrinolysis = assay: prevention / reversal of fibrinolysis; settings: relative to doses of the non-GLP acute porcine study
Description: (§1) However, in some embodiments, however, higher doses of tranexamic acid are used for topical applications to account for tranexamic acid being widely distributed throughout the extracellular and intracellular compartments when given preoperatively.

[1] = in vivo
Description: as §1

Row | SMILES | effect on myofibroblast formation (myofibroblast formation) | dose effective in reversing fibrinolysis (fibrinolysis) | time to reach plasma concentrations [1]
1 | O=S(=O)([O-])CCS.[Na+] [MESNA, sodium 2-mercaptoethane sulfonate] | diminish myofibroblast formation |  | 
2 | NC[C@H]1CC[C@H](C(=O)O)CC1 [tranexamic acid, trans-4-(aminomethyl)cyclohexanecarboxylic acid] |  | one tenth of the doses used in the non-GLP acute porcine study | 5 to 15 min
